Results on eight compounds are retold here after PubChem BioAssay (NCI).

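48-hour exposure; five concentrations; linearly interpolated endpoints. At the GI50, growth is halved. TGI marks complete inhibition of growth.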

Some test systems named below: ACHN renal; T-47D breast; SN12C renal; OVCAR-5 ovarian; M14 melanoma; HCT-116 colon; CCRF-CEM leukemia; NCI-H522 lung; COLO 205 colon; CAKI-1 renal.
Common to all, as to experiment: NCI tumour cell line growth inhibition, 48 h

In the case of `O=C(Cn1ccc(=O)[nH]c1=O)Nc1ccc(C(=O)O)c(O)c1`, the TGI in the test with ACHN renal, with T-47D breast, in the test with SN12C renal, in the test with OVCAR-5 ovarian, in the test on M14 melanoma and in the test with HCT-116 colon was over 100 µM each time. In addition, the TGI in the test with CCRF-CEM leukemia, with NCI-H522 lung, in the test with COLO 205 colon and in the test with CAKI-1 renal was over 100 µM throughout.

Regarding `O=CNc1c(Cl)cc2c(c1Cl)Cc1cc([N+](=O)[O-])ccc1-2`, the GI50 was 7.83 µM in the test with ACHN renal; 5.49 µM in the test with T-47D breast; 14.4 µM in the test with SN12C renal; 16.6 µM in the test on OVCAR-5 ovarian; 2.92 µM in the test on M14 melanoma; 1.02 µM in the test on HCT-116 colon. The GI50 with CCRF-CEM leukemia is 0.445 µM; in the test on NCI-H522 lung, 3.05 µM; in the test with COLO 205 colon it was 4.76 µM; in the test with CAKI-1 renal it was 8.34 µM. The TGI with ACHN renal was over 100 µM; in the test with T-47D breast it was over 100 µM; with SN12C renal, over 100 µM; with OVCAR-5 ovarian it was over 100 µM; in the test with M14 melanoma, over 54.6 µM; in the test on HCT-116 colon it was 19.7 µM. Besides, the TGI is over 100 µM in the test with CCRF-CEM leukemia, over 29.1 µM in the test with NCI-H522 lung, 23.7 µM in the test with COLO 205 colon and over 91.2 µM in the test on CAKI-1 renal.

Take `O=C1OC(=O)C(c2c[nH]c3ccccc23)=C1c1c[nH]c2ccccc12`: the GI50 with ACHN renal, in the test with T-47D breast, in the test with SN12C renal, with OVCAR-5 ovarian, in the test with M14 melanoma and in the test with HCT-116 colon was over 25 µM throughout. Moreover, the GI50 in the test with CCRF-CEM leukemia, in the test with NCI-H522 lung, in the test on COLO 205 colon and in the test on CAKI-1 renal was over 25 µM each time. For the same compound, the TGI with ACHN renal, with T-47D breast, with SN12C renal, in the test on OVCAR-5 ovarian, in the test on M14 melanoma and with HCT-116 colon was over 25 µM in each case. The TGI in the test on CCRF-CEM leukemia, in the test on NCI-H522 lung, in the test on COLO 205 colon and in the test on CAKI-1 renal was over 25 µM each time.

For the compound `CCN(CC)c1ccc(C(=C2C=CC(=[N+](CC)Cc3cccc(S(=O)(=O)O)c3)C=C2)c2ccc(N(CC)Cc3cccc(S(=O)(=O)O)c3)cc2)cc1`, the GI50 with ACHN renal was 9.48 µM; with T-47D breast, 3.14 µM; in the test on SN12C renal, 3.24 µM; in the test on OVCAR-5 ovarian, 20.8 µM; in the test on M14 melanoma it was 4.93 µM; with HCT-116 colon it was 3.18 µM. The GI50 was 6.59 µM in the test on CCRF-CEM leukemia, 7.88 µM with NCI-H522 lung, 1.87 µM in the test on COLO 205 colon and 24 µM in the test with CAKI-1 renal. Also, the TGI was over 68.5 µM with ACHN renal; over 29.3 µM with T-47D breast; over 100 µM with SN12C renal; over 100 µM with OVCAR-5 ovarian; 39.2 µM with M14 melanoma; 19.7 µM in the test with HCT-116 colon. For the same compound, the TGI in the test with CCRF-CEM leukemia was 98.5 µM; in the test on NCI-H522 lung it was over 79.2 µM; in the test with COLO 205 colon it was 3.83 µM; in the test with CAKI-1 renal, over 100 µM.

`CCN(CC)CCn1ccc(=O)c2cc3c(=O)ccn(CCN(CC)CC)c3c(C)c21`: the TGI was 20.1 µM with ACHN renal; 50 µM with T-47D breast; 21.3 µM in the test on SN12C renal; 29.9 µM with OVCAR-5 ovarian; 22.5 µM with M14 melanoma; 9.08 µM in the test on HCT-116 colon. Also, the TGI in the test on CCRF-CEM leukemia was 29.6 µM; in the test on NCI-H522 lung, 20.7 µM; in the test on COLO 205 colon it was 15.3 µM; with CAKI-1 renal it was 18.3 µM.

Take `CCN(Cc1ccc(F)c(F)c1)c1ccc(CO)c(Cl)c1`: the GI50 in the test with ACHN renal was 9.77 µM; in the test on T-47D breast, 0.0977 µM; in the test with SN12C renal it was 11 µM; with OVCAR-5 ovarian, 0.0592 µM; in the test on M14 melanoma, 14 µM; in the test on HCT-116 colon it was 0.0911 µM. The GI50 in the test on CCRF-CEM leukemia is 15.1 µM; in the test with NCI-H522 lung, 13.2 µM; in the test with COLO 205 colon, 2.32 µM; with CAKI-1 renal, 3.92 µM. Moreover, the TGI worked out at 22.8 µM with ACHN renal; 0.667 µM in the test on T-47D breast; 23.9 µM in the test with SN12C renal; 0.306 µM with OVCAR-5 ovarian; 30.2 µM in the test on M14 melanoma; 11.4 µM with HCT-116 colon. Further, the TGI stood at 47 µM with CCRF-CEM leukemia, 30.2 µM in the test on NCI-H522 lung, 7.48 µM with COLO 205 colon and 27.5 µM in the test with CAKI-1 renal.

With `C[C@H](Nc1ncnc2nc[nH]c12)c1cc2cccc(Cl)c2c(=O)n1-c1ccccc1`, the GI50 in the test with ACHN renal was 5 µM; with T-47D breast, 1.58 µM; in the test on SN12C renal, 3.11 µM; in the test on OVCAR-5 ovarian it was 21.4 µM; with M14 melanoma it was 21.1 µM; in the test on HCT-116 colon it was 18.4 µM. The GI50 in the test with CCRF-CEM leukemia was 3 µM; with NCI-H522 lung, 6.93 µM; with COLO 205 colon it was 19.7 µM; with CAKI-1 renal, 13.5 µM. Also, the TGI is over 100 µM in the test with ACHN renal; over 43.5 µM with T-47D breast; over 100 µM with SN12C renal; over 100 µM with OVCAR-5 ovarian; over 100 µM in the test with M14 melanoma; over 100 µM with HCT-116 colon. The TGI in the test with CCRF-CEM leukemia, in the test on NCI-H522 lung, in the test with COLO 205 colon and in the test with CAKI-1 renal was over 100 µM each time.

Consider `CC1SC(c2c(Cl)cccc2Cl)N(NC(=O)c2[nH]c3ccc(F)cc3c2-c2ccccc2)C1=O` (stereo not given), for which the GI50 in the test on ACHN renal is 2.82 µM; in the test with T-47D breast, 2.61 µM; with SN12C renal, 2.26 µM; in the test on OVCAR-5 ovarian, 3.06 µM; with M14 melanoma it was 3.96 µM; in the test with HCT-116 colon it was 1.71 µM. Moreover, the GI50 in the test on CCRF-CEM leukemia was 4.79 µM; with NCI-H522 lung, 1.87 µM; in the test on COLO 205 colon, 2.69 µM; with CAKI-1 renal it was 1.83 µM. For the same compound, the TGI with ACHN renal was 8.35 µM; in the test on T-47D breast, 14 µM; in the test with SN12C renal it was 5.86 µM; in the test on OVCAR-5 ovarian, 21.3 µM; with M14 melanoma it was 30.2 µM; with HCT-116 colon, 3.08 µM. Besides, the TGI in the test on CCRF-CEM leukemia is 42.5 µM; with NCI-H522 lung, 5.83 µM; in the test on COLO 205 colon, 7.48 µM; in the test with CAKI-1 renal, 4.85 µM.
